Results from article PMC7615250 (Cell reports, 2023).

Key:
[1] = test system: NPR-34; assay: Aequorin-based calcium mobilization assay; assay type: cell-based, C. elegans; settings: CHO/mtAEQ/Gα16 cells expressing NPR-34; aequorin luminescence; n ≥ 6
[2] = target: SEB-2 (Caenorhabditis elegans, UniProt P30650); assay type: cell-based, C. elegans; settings: n ≥ 6
Chain of SEB-2 (P30650 whole entry, looked up): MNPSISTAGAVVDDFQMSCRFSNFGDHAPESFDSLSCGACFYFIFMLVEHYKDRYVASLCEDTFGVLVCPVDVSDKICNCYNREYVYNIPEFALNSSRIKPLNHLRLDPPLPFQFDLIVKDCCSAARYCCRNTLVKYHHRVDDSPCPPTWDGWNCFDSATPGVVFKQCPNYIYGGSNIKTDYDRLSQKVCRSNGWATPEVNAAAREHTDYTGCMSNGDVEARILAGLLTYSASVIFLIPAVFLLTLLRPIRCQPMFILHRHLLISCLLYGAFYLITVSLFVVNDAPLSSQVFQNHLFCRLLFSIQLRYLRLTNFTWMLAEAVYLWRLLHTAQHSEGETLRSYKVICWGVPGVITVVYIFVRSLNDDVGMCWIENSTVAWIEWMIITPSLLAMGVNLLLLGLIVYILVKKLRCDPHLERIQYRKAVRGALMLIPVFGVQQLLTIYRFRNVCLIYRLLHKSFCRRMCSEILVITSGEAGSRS

Substance	receptor activation (calcium response) [1]	receptor activation (calcium response) [2]
LDCRKFSFAPACRGIML; C3–C12 (disulfide) [SNET-1]	activate	
NRQCLLNAGLSQGCDFSDLLHAQTQARKFMSFAGPamide; C4–C14 (disulfide) [NLP-73]		activate
